What was measured:
[1] = Initial screening: effect of excipients on remdesivir solubility; type: physicochemical
[2] = Solubility of remdesivir in water in the presence of surfactants; type: physicochemical
Protocol: The effect of various surfactants on the solubility of remdesivir in water was also tested.

[3] = cited from earlier work

Substance: remdesivir
- Solubility ([1]; in Benzyl Alcohol): ≥56 mg/mL
- Solubility ([1]; in Ethanol): ≥21 mg/mL
- Solubility ([1]; in N-methyl pyrrolidone): > 100 mg/mL
- Solubility ([1]; in N-methyl-2-pyrrolidone (NMP)): ≥112 mg/mL
- Solubility ([1]; in NMP + Ethanol): ≥226 mg/mL
- Solubility ([1]; in PEG 300): ≥39 mg/mL
- Solubility ([1]; in PEG 400): ≥16 mg/mL
- Solubility ([1]; in PEG 400 + Glycerol (3:5)): 0.011 mg/mL
- Solubility ([1]; in PEG 400 + Glycerol (3:10)): 0.0008 mg/mL
- Solubility ([1]; in PEG 600): ≥6.2 mg/mL
- Solubility ([1]; in PEG 1000): ≥6.3 mg/mL
- Solubility ([1]; in Peppermint Oil): 15.9 mg/mL
- Solubility ([1]; in Plasdone (PVP) + PEG 300): ≥66 mg/mL
- Solubility ([1]; in Propylene Glycol): ≥29 mg/mL
- Solubility ([1]; in Soluplus + Ethanol + Water): ≥34 mg/mL
- Solubility ([1]; in Span 20): 0.006 mg/mL
- Solubility ([1]; in Span 80): 0.3 mg/mL
- Solubility ([1]; in low molecular weight polyethylene glycols (PEG 300 and 400) in the presence of low molecular weight PVP): over 50 mg/ml
- Remdesivir Solubility ([2]; water with Kolliphor EL (Polyoxyl 35 Castor Oil; Cremophor) 0.10 % w/w): 0.020 mg/mL
- Remdesivir Solubility ([2]; water with Poloxamer P407 0.07 % w/w): 0.006 mg/mL
- Remdesivir Solubility ([2]; water with TWEEN 20 (Polysorbate 20) 0.16 % w/w): 0.016 mg/mL
- Remdesivir Solubility ([2]; water with TWEEN 80 (Polysorbate 80) 0.30 % w/w): 0.033 mg/mL
- solubility in water (in words) [3]: insoluble

Source: patent US20250057860A1, “READY-TO-DILUTE FORMULATION” (priority 2021, published 2025)
